The experiment relates to MV-4-11 cells. In words: Gene expression microarray analysis (Affymetrix PrimeView) and GSEA. It counts as cell-based, human. Further details: RFU PODN (11730768_x_at) / Fold change /veh PODN (11730768_x_at) / RFU LINC00158 (11744669_a_at) / Fold change /veh LINC00158 (11744669_a_at) / RFU DUSP10 (11751237_a_at) / Fold change /veh DUSP10 (11751237_a_at) / RFU ID3 (11757404_x_at) / Fold change /veh ID3 (11757404_x_at) / RFU PLEKHG5 (11737974_s_at) / Fold change /veh PLEKHG5 (11737974_s_at) / RFU LRRC4B (11730491_at) / Fold change /veh LRRC4B (11730491_at) / RFU GIMAP4 (11747438_a_at) / Fold change /veh GIMAP4 (11747438_a_at) / RFU KRT8 (11758183_x_at) / Fold change /veh KRT8 (11758183_x_at) / RFU CNN1 (11734310_a_at) / Fold change /veh CNN1 (11734310_a_at) / RFU VPS37D (11726825_at) / Fold change /veh VPS37D (11726825_at) / RFU C10orf10 (11716522_x_at) / Fold change /veh C10orf10 (11716522_x_at) / RFU KIR2DL2 /// KIR2DL4 /// KIR2DL5A /// KIR2DL5B /// KIR2DS1 /// KIR2DS2 /// KIR2DS3 /// KIR2DS4 /// KIR3DL3 /// KIR3DL3 /// KIR3DS1 (11738374_at) / Fold change /veh KIR2DL2 /// KIR2DL4 /// KIR2DL5A /// KIR2DL5B /// KIR2DS1 /// KIR2DS2 /// KIR2DS3 /// KIR2DS4 /// KIR3DL3 /// KIR3DL3 /// KIR3DS1 (11738374_at) / RFU C1QL1 (11718748_at) / Fold change /veh C1QL1 (11718748_at) / RFU TMPRSS4 (11747572_a_at) / Fold change /veh TMPRSS4 (11747572_a_at) / RFU HAMP (11756126_x_at) / Fold change /veh HAMP (11756126_x_at) / RFU RNFT2 (11725882_a_at) / Fold change /veh RNFT2 (11725882_a_at) / RFU NR4A2 (11747474_a_at) / Fold change /veh NR4A2 (11747474_a_at) / RFU ABCC12 (11746883_a_at) / Fold change /veh ABCC12 (11746883_a_at) / RFU TMEM136 (11760407_x_at) / Fold change /veh TMEM136 (11760407_x_at) / RFU CLDN22 /// WWC2 (11732394_at) / Fold change /veh CLDN22 /// WWC2 (11732394_at) / RFU HLA-DPB1 (11760878_x_at) / Fold change /veh HLA-DPB1 (11760878_x_at) / RFU SPINT1 (11716480_a_at) / Fold change /veh SPINT1 (11716480_a_at) / RFU GAP43 (11754022_s_at) / Fold change /veh GAP43 (11754022_s_at) / RFU A4GNT (11735810_at) / Fold change /veh A4GNT (11735810_at) / RFU PRB3 (11715151_x_at) / Fold change /veh PRB3 (11715151_x_at) / RFU TUBB4B (11761932_at) / Fold change /veh TUBB4B (11761932_at) / RFU CAPN14 (11732068_a_at) / Fold change /veh CAPN14 (11732068_a_at) / RFU TMCC2 (11721928_a_at) / Fold change /veh TMCC2 (11721928_a_at) / RFU IRGQ (11745062_a_at) / Fold change /veh IRGQ (11745062_a_at) / RFU FAM174B (11720279_a_at) / Fold change /veh FAM174B (11720279_a_at) / RFU TMPRSS4 (11748680_a_at) / Fold change /veh TMPRSS4 (11748680_a_at) / RFU FAM212B (11763350_a_at) / Fold change /veh FAM212B (11763350_a_at) / RFU PLEKHG5 (11743358_a_at) / Fold change /veh PLEKHG5 (11743358_a_at) / RFU ZSCAN30 (11745921_a_at) / Fold change /veh ZSCAN30 (11745921_a_at) / RFU CMKLR1 (11741424_a_at) / Fold change /veh CMKLR1 (11741424_a_at) / RFU LOC101060620 /// MAPK8IP1 (11723275_at) / Fold change /veh LOC101060620 /// MAPK8IP1 (11723275_at) / RFU SPTSSB (11747773_x_at) / Fold change /veh SPTSSB (11747773_x_at) / RFU PRSS12 (11739890_at) / Fold change /veh PRSS12 (11739890_at) / RFU BIN1 (11741810_x_at) / Fold change /veh BIN1 (11741810_x_at) / RFU WNT11 (11732464_a_at) / Fold change /veh WNT11 (11732464_a_at) / RFU C10orf10 (11716521_a_at) / Fold change /veh C10orf10 (11716521_a_at) / RFU C5orf56 (11738089_at) / Fold change /veh C5orf56 (11738089_at) / RFU CYB561 (11721691_x_at) / Fold change /veh CYB561 (11721691_x_at) / RFU ANKRD19P (11752326_a_at) / Fold change /veh ANKRD19P (11752326_a_at) / RFU OR2T12 /// OR2T33 /// OR2T8 (11738714_s_at) / Fold change /veh OR2T12 /// OR2T33 /// OR2T8 (11738714_s_at) / RFU VCAN (11748164_a_at) / Fold change /veh VCAN (11748164_a_at) / RFU JSRP1 (11732532_at) / Fold change /veh JSRP1 (11732532_at) / RFU KRTAP10-11 (11738290_x_at) / Fold change /veh KRTAP10-11 (11738290_x_at) / RFU MYO3A (11730013_a_at) / Fold change /veh MYO3A (11730013_a_at) / RFU EBF3 (11725865_a_at) / Fold change /veh EBF3 (11725865_a_at) / RFU CAMK2N1 (11719241_x_at) / Fold change /veh CAMK2N1 (11719241_x_at) / RFU C5orf56 (11738088_a_at) / Fold change /veh C5orf56 (11738088_a_at) / RFU OLFML3 (11715873_a_at) / Fold change /veh OLFML3 (11715873_a_at) / RFU LOC100653217 /// NTM (11731650_a_at) / Fold change /veh LOC100653217 /// NTM (11731650_a_at) / RFU MAPK11 (11762145_a_at) / Fold change /veh MAPK11 (11762145_a_at) / RFU FIZ1 (11724087_x_at) / Fold change /veh FIZ1 (11724087_x_at) / RFU OASL (11726364_x_at) / Fold change /veh OASL (11726364_x_at) / RFU SOX15 (11748057_x_at) / Fold change /veh SOX15 (11748057_x_at) / RFU CD79A (11719716_a_at) / Fold change /veh CD79A (11719716_a_at) / RFU HIST1H1D (11736915_at) / Fold change /veh HIST1H1D (11736915_at) / RFU CASKIN2 (11723855_a_at) / Fold change /veh CASKIN2 (11723855_a_at) / RFU LOC730098 (11760151_x_at) / Fold change /veh LOC730098 (11760151_x_at) / RFU OR4N2 (11742367_at) / Fold change /veh OR4N2 (11742367_at) / RFU PRRT2 (11749266_a_at) / Fold change /veh PRRT2 (11749266_a_at) / RFU SNX32 (11753110_a_at) / Fold change /veh SNX32 (11753110_a_at) / RFU CDHR5 (11726645_a_at) / Fold change /veh CDHR5 (11726645_a_at) / RFU RCAN1 (11760418_a_at) / Fold change /veh RCAN1 (11760418_a_at) / RFU FAM167A (11723789_a_at) / Fold change /veh FAM167A (11723789_a_at) / RFU FAM26E (11764081_at) / Fold change /veh FAM26E (11764081_at) / RFU ISYNA1 (11749810_s_at) / Fold change /veh ISYNA1 (11749810_s_at) / RFU ACY1 (11761880_at) / Fold change /veh ACY1 (11761880_at) / RFU 11764098_at / Fold change /veh 11764098_at / RFU SAMD14 (11745864_x_at) / Fold change /veh SAMD14 (11745864_x_at) / RFU NPB (11741838_a_at) / Fold change /veh NPB (11741838_a_at) / RFU TMPRSS6 (11731388_a_at) / Fold change /veh TMPRSS6 (11731388_a_at) / RFU KRTAP10-2 (11738614_at) / Fold change /veh KRTAP10-2 (11738614_at) / RFU ARHGAP8 /// PRR5-ARHGAP8 (11727945_x_at) / Fold change /veh ARHGAP8 /// PRR5-ARHGAP8 (11727945_x_at) / RFU KRTAP5-7 /// NADSYN1 (11734609_at) / Fold change /veh KRTAP5-7 /// NADSYN1 (11734609_at) / RFU RASL12 (11751679_a_at) / Fold change /veh RASL12 (11751679_a_at) / RFU CDKN2B (11736163_a_at) / Fold change /veh CDKN2B (11736163_a_at) / RFU PRF1 (11729649_at) / Fold change /veh PRF1 (11729649_at) / RFU, ZNF638 /// ZNF638-IT1 / Fold change vs veh, ZNF638 /// ZNF638-IT1 / RFU, PANK3 / Fold change vs veh, PANK3 / RFU, SH3YL1 / Fold change vs veh, SH3YL1 / RFU, ZEB2 / Fold change vs veh, ZEB2 / RFU, NRIP1 / Fold change vs veh, NRIP1 / RFU, PTTG1IP / Fold change vs veh, PTTG1IP / RFU, CAPN2 / Fold change vs veh, CAPN2 / RFU, MED14 / Fold change vs veh, MED14 / RFU, SNORA58 / Fold change vs veh, SNORA58 / RFU, C1orf63 / Fold change vs veh, C1orf63 / RFU, LRRFIP1 / Fold change vs veh, LRRFIP1 / RFU, NDUFAF7 / Fold change vs veh, NDUFAF7 / RFU, SLC12A2 / Fold change vs veh, SLC12A2 / RFU, IBTK / Fold change vs veh, IBTK / RFU, ESF1 / Fold change vs veh, ESF1 / Fold change vs veh, TMEM50B / RFU, TAOK1 / Fold change vs veh, TAOK1 / RFU, ACBD3 / Fold change vs veh, ACBD3 / RFU, TMA16 / Fold change vs veh, TMA16 / RFU, RWDD3 / Fold change vs veh, RWDD3 / RFU, BCAT1 / Fold change vs veh, BCAT1 / RFU, EDEM3 / Fold change vs veh, EDEM3 / RFU, TMEM33 / Fold change vs veh, TMEM33 / RFU, WDR75 / Fold change vs veh, WDR75 / RFU, AHCTF1 / Fold change vs veh, AHCTF1 / RFU, TFRC / Fold change vs veh, TFRC / RFU, ZDHHC17 / Fold change vs veh, ZDHHC17 / RFU, NOM1 / Fold change vs veh, NOM1 / RFU, ARL8B / Fold change vs veh, ARL8B / RFU, ZBTB11 / Fold change vs veh, ZBTB11 / RFU, TAMM41 / Fold change vs veh, TAMM41 / RFU, KIAA1704 /// LOC100996395 / Fold change vs veh, KIAA1704 /// LOC100996395 / RFU, ING1 / Fold change vs veh, ING1 / RFU, TRMT61B / Fold change vs veh, TRMT61B / RFU, FUBP3 / Fold change vs veh, FUBP3 / RFU, TP53 / Fold change vs veh, TP53 / RFU, TNKS2 / Fold change vs veh, TNKS2 / RFU, ZFP14 / Fold change vs veh, ZFP14 / RFU, ACTR2 / Fold change vs veh, ACTR2 / RFU, PPP3R1 / Fold change vs veh, PPP3R1 / RFU, PIK3R1 / Fold change vs veh, PIK3R1 / RFU, HNRNPA1 / Fold change vs veh, HNRNPA1 / RFU, RNF170 / Fold change vs veh, RNF170 / RFU, ZNF28 / Fold change vs veh, ZNF28 / RFU, RNGTT / Fold change vs veh, RNGTT / RFU, OGT / Fold change vs veh, OGT / RFU, BRD1 / Fold change vs veh, BRD1 / RFU, MARS / Fold change vs veh, MARS / RFU, ZNF655 / Fold change vs veh, ZNF655 / RFU, FAHD1 / Fold change vs veh, FAHD1 / RFU, BDP1 / Fold change vs veh, BDP1 / RFU, LRRCC1 / Fold change vs veh, LRRCC1 / RFU, ARID1A / Fold change vs veh, ARID1A / RFU, ZNF146 / Fold change vs veh, ZNF146 / RFU, ZNF330 / Fold change vs veh, ZNF330 / RFU, GPN3 / Fold change vs veh, GPN3 / RFU, C9orf123 / Fold change vs veh, C9orf123 / RFU, N4BP2L2 / Fold change vs veh, N4BP2L2 / RFU, ARFIP1 / Fold change vs veh, ARFIP1 / RFU, FAM179B / Fold change vs veh, FAM179B / RFU, BCL10 / Fold change vs veh, BCL10 / RFU, UHRF1BP1L / Fold change vs veh, UHRF1BP1L / RFU, BET1 / Fold change vs veh, BET1 / RFU, CNOT2 / Fold change vs veh, CNOT2 / RFU, ZNF268 / Fold change vs veh, ZNF268 / Fold change vs veh, ZNF507 / RFU, DGCR2 / Fold change vs veh, DGCR2 / RFU, WDSUB1 / Fold change vs veh, WDSUB1 / Fold change vs veh, HSP90B1 /// MIR3652 / RFU, ADSS / Fold change vs veh, ADSS / RFU, GK / Fold change vs veh, GK / RFU, ZNF148 / Fold change vs veh, ZNF148 / RFU, TAF9 / Fold change vs veh, TAF9 / RFU, SLC1A5 / Fold change vs veh, SLC1A5 / RFU, SLMO2 / Fold change vs veh, SLMO2 / RFU, ABCC4 / Fold change vs veh, ABCC4 / RFU, LOC101060439 /// RAP1B / Fold change vs veh, LOC101060439 /// RAP1B / RFU, RFX7 / Fold change vs veh, RFX7 / RFU, GTPBP10 / Fold change vs veh, GTPBP10 / RFU, CNEP1R1 / Fold change vs veh, CNEP1R1 / RFU, BIVM-ERCC5 /// ERCC5 / Fold change vs veh, BIVM-ERCC5 /// ERCC5 / RFU, ILF3 / Fold change vs veh, ILF3 / RFU 11762660_at / Fold change /veh 11762660_at / RFU VCAN (11757783_s_at) / Fold change /veh VCAN (11757783_s_at) / RFU DDX43 (11728927_at) / Fold change /veh DDX43 (11728927_at) / RFU KRT8 (11758188_x_at) / Fold change /veh KRT8 (11758188_x_at) / RFU NKD1 (11759106_at) / Fold change /veh NKD1 (11759106_at) / RFU SRD5A1 (11742802_a_at) / Fold change /veh SRD5A1 (11742802_a_at) / RFU TPSAB1 /// TPSB2 (11721975_s_at) / Fold change /veh TPSAB1 /// TPSB2 (11721975_s_at) / RFU GSTM3 (11746129_a_at) / Fold change /veh GSTM3 (11746129_a_at) / RFU IL23R (11737362_x_at) / Fold change /veh IL23R (11737362_x_at) / RFU TMEM51 (11727254_a_at) / Fold change /veh TMEM51 (11727254_a_at) / RFU PIWIL2 (11732686_x_at) / Fold change /veh PIWIL2 (11732686_x_at) / RFU ORM1 (11744905_x_at) / Fold change /veh ORM1 (11744905_x_at) / RFU CCDC152 (11743942_at) / Fold change /veh CCDC152 (11743942_at) / RFU ECM1 (11717891_a_at) / Fold change /veh ECM1 (11717891_a_at) / RFU IL23R (11748794_a_at) / Fold change /veh IL23R (11748794_a_at) / RFU TNFAIP8L3 (11732012_x_at) / Fold change /veh TNFAIP8L3 (11732012_x_at) / RFU MBOAT4 (11741988_at) / Fold change /veh MBOAT4 (11741988_at) / RFU 11764193_at / Fold change /veh 11764193_at / RFU TMEM53 (11763286_at) / Fold change /veh TMEM53 (11763286_at) / RFU MAGEB2 (11727129_at) / Fold change /veh MAGEB2 (11727129_at) / RFU TMEM200A (11744735_a_at) / Fold change /veh TMEM200A (11744735_a_at) / RFU CCDC152 (11751479_a_at) / Fold change /veh CCDC152 (11751479_a_at) / RFU FAM211A (11726209_a_at) / Fold change /veh FAM211A (11726209_a_at) / RFU RGS16 (11746705_a_at) / Fold change /veh RGS16 (11746705_a_at) / RFU VCAN (11755009_s_at) / Fold change /veh VCAN (11755009_s_at) / RFU RHOB (11743442_s_at) / Fold change /veh RHOB (11743442_s_at) / RFU RGS16 (11720943_a_at) / Fold change /veh RGS16 (11720943_a_at) / RFU RGS16 (11720944_at) / Fold change /veh RGS16 (11720944_at) / RFU, VPS4B / Fold change vs veh, VPS4B / RFU, CREB1 / Fold change vs veh, CREB1 / RFU, DNAJC13 / Fold change vs veh, DNAJC13 / RFU, GNAQ / Fold change vs veh, GNAQ / RFU, CDK5R1 / Fold change vs veh, CDK5R1 / RFU, ZRANB3 / Fold change vs veh, ZRANB3 / RFU, CUL4A / Fold change vs veh, CUL4A / RFU, CCNY / Fold change vs veh, CCNY / RFU, UFL1 / Fold change vs veh, UFL1 / RFU, COG3 / Fold change vs veh, COG3 / RFU, DIAPH2 / Fold change vs veh, DIAPH2 / RFU, SKA2 / Fold change vs veh, SKA2 / RFU, AFF3 / Fold change vs veh, AFF3 / RFU, LMF1 / Fold change vs veh, LMF1 / RFU, IPO11 / Fold change vs veh, IPO11 / RFU, DFFB / Fold change vs veh, DFFB / RFU, FOXP1 / Fold change vs veh, FOXP1 / RFU, CARD8 / Fold change vs veh, CARD8 / RFU, STRN3 / Fold change vs veh, STRN3 / RFU, ADK / Fold change vs veh, ADK / RFU, RASSF2 / Fold change vs veh, RASSF2 / RFU, WIPF1 / Fold change vs veh, WIPF1 / RFU, LARP1B / Fold change vs veh, LARP1B / RFU, RASA1 / Fold change vs veh, RASA1 / RFU, RB1 / Fold change vs veh, RB1 / RFU, PPFIA1 / Fold change vs veh, PPFIA1 / RFU, MAT2A / Fold change vs veh, MAT2A / RFU, CCT5 / Fold change vs veh, CCT5 / RFU, WDR92 / Fold change vs veh, WDR92 / RFU, CUX1 / Fold change vs veh, CUX1 / RFU, TTC7A / Fold change vs veh, TTC7A / RFU, TMEM135 / Fold change vs veh, TMEM135 / RFU, DEPTOR / Fold change vs veh, DEPTOR / RFU, CPM / Fold change vs veh, CPM / RFU, DNAJB6 / Fold change vs veh, DNAJB6 / RFU, CACNA2D3 / Fold change vs veh, CACNA2D3 / RFU, DTX4 / Fold change vs veh, DTX4 / RFU, TFCP2 / Fold change vs veh, TFCP2 / RFU, GMCL1 /// GMCL1P1 / Fold change vs veh, GMCL1 /// GMCL1P1 / RFU, AEBP2 / Fold change vs veh, AEBP2 / RFU, SNHG1 /// SNORD22 /// SNORD25 /// SNORD26 /// SNORD27 /// SNORD28 /// SNORD29 /// SNORD31 / Fold change vs veh, SNHG1 /// SNORD22 /// SNORD25 /// SNORD26 /// SNORD27 /// SNORD28 /// SNORD29 /// SNORD31 / Fold change (Aza/veh), C12orf56 (ProbeSet 11735607_a_at) / Fold change (ACY-1035/veh), C12orf56 (ProbeSet 11735607_a_at) / Fold change (Aza/veh), FGFR1OP (ProbeSet 11751329_s_at) / Fold change (ACY-1035/veh), FGFR1OP (ProbeSet 11751329_s_at) / Fold change (Aza/veh), VPS36 (ProbeSet 11739960_a_at) / Fold change (ACY-1035/veh), VPS36 (ProbeSet 11739960_a_at) / RFU SYPL1 (11715823_x_at) / Fold change /veh SYPL1 (11715823_x_at) / RFU IGFBP7 (11715501_s_at) / Fold change /veh IGFBP7 (11715501_s_at) / RFU REEP3 (11722064_at) / Fold change /veh REEP3 (11722064_at) / RFU IGLL1 (11728026_x_at) / Fold change /veh IGLL1 (11728026_x_at): dose or concentration left out as unconfirmed. To be noted: ProbeSet 11728271_at; LIST B.

The values below come from paper PMC5218480 (PLoS ONE, 2017).

With `Nc1ccc(-c2cccs2)cc1NC(=O)c1ccc2c(c1)cc(C1CC1)n2CCN1CCOCC1` [ACY-1035], the “Fold change vs veh, ZNF330” value came to 0.88.
